Test results: patent US9149445B2, “Inhibition of glycerol-3-phosphate acyltransferase (GPAT) and associated enzymes for treatment of viral infections” (THE TRUSTEES OF PRINCETON UNIVERSITY, priority 2009, dated 2015)

Legend:
mTOR = mTOR (Homo sapiens, UniProt P42345); settings: selective mTOR inhibitors; cited from earlier work
[1] = system: panel of 140 protein kinases; settings: cited from earlier work
GPAT = settings: cited from earlier work
HCMV = HCMV replication in serum-starved fibroblasts, infectious progeny by TCID50 assay; format: cell-based, human cytomegalovirus; settings: multiplicity 0.1 TCID50 units per cell
Procedure: FIG. 2. Inhibition of HCMV Replication by Inhibition of GPAT. Serum-starved fibroblasts were infected with HCMV at a multiplicity of 0.1 TCID50 units per cell. After adsorption for 1 h, cultures were re-fed with serum-free medium containing concentrations of 2.5 μg/ml, 5 μg/ml and 10 μg/ml of FAS 115 or with DMSO, the solvent used to dissolve FAS 115. Medium was assayed at 0, 2, 4, 6, 8, 10 and 12 days after infection and the production of infectious progeny was determined by TCID50 assay on fibroblasts.
Serum-starved fibroblasts were infected with HCMV at a multiplicity of 0.1 TCID50 units per cell. After adsorption for 1 h, cultures were re-fed with serum-free medium containing concentrations of 2.5μ/ml, 5μ/ml and 10μ/ml of FAS 115 or with DMSO, the solvent used to dissolve FAS 115. The medium was assayed at 0, 2, 4, 6, 8, 10 and 12 days after infection and the production of infectious progeny was determined by TCID50 assay on fibroblasts. […] At the highest concentration, production of virus was not observed on day 12 after infection. (FIG. 2).
Cell Lines, Viral Stock. Low passage fibroblasts (passage 6-8) were cultured in a medium containing 10% fetal bovine serum. Bacterial artificial chromosome-derived HCMV AD 169 strain (BADWT) was propagated in human foreskin fibroblasts (HFFs), concentrated via a 20% sorbitol cushion, and resuspended as a stock in serum-free media.

human cytomegalovirus = experiment: HCMV late protein expression by Western blot in infected fibroblasts; format: cell-based; settings: intermediate and high concentrations (5μ/ml and 10μ/ml); 96 hours after infection; multiplicity 3.0 TCID50 units/cell; compared to tubulin and IE-1
Procedure: FIG. 3. Dose-dependent Inhibition of Human Cytomegalovirus Late Protein Expression by Inhibition of GPAT. Serum-starved fibroblasts were infected with human cytomegalovirus at a multiplicity of 3.0 TCID50 units/cell. After adsorption for 1 h, cultures were re-fed with serum-free medium containing the indicated concentrations of FAS 115 or with DMSO, the solvent used to dissolve FAS 115. Cells were harvested at 96 hours after infection and viral protein expression was assessed by Western blot. IE-1 is a viral protein expressed immediately early during infection. pp65 and pp28 are viral proteins expressed late during HCMV infection. Tubulin is a loading control.
Serum-starved fibroblasts were infected with human cytomegalovirus at a multiplicity of 3.0 TCID50 units/cell. After adsorption for 1 h, cultures were re-fed with serum-free medium containing 2.5μ/ml, 5μ/ml and 10μ/ml of FAS 115 or with DMSO, the solvent used to dissolve FAS 115. Cells were harvested at 96 hours after infection and viral protein expression was assessed by Western blot. IE-1 is a viral protein expressed during the immediate-early phase of infection. pp65 and pp28 are viral proteins expressed late during HCMV infection. Tubulin is a loading control. […] (FIG. 3).

herpes simplex virus-1 = experiment: HSV-1 replication in serum-starved fibroblasts, infectious progeny by TCID50 assay; format: cell-based; settings: multiplicity 0.01 TCID50 units/cell
Procedure: FIG. 4. Dose-dependent Inhibition of Herpes Simplex Virus-1 Replication by Inhibition of GPAT. Serum-starved fibroblasts were infected with herpes simplex virus-1 at a multiplicity of 0.01 TCID50 units/cell. After adsorption for 1 h, cultures were re-fed with serum-free medium containing the indicated concentrations of FAS 115 or with DMSO, the solvent used to dissolve FAS 115. Medium was harvested at the indicated times after infection and the production of infectious progeny was determined by TCID50 assay on fibroblasts.
Serum-starved fibroblasts were infected with herpes simplex virus-1 at a multiplicity of 0.01 TCID50 units/cell. After adsorption for 1 h, cultures were re-fed with serum-free medium containing concentrations of 2.5μ/ml, 5μ/ml and 10μ/ml of FAS 115 of FAS 115 or with DMSO, the solvent used to dissolve FAS 115. The medium was assayed daily for five days and the production of infectious progeny was determined by TCID50 assay on fibroblasts. […] At higher concentrations, the concentration of infections virus was reduced to 1 TCID50 unit/ml or less after 5 days. (FIG. 4).

Compound: COC(=O)Nc1ccc(-c2nc(N3CCOCC3)c3cnn(C4CCN(C(=O)OC)CC4)c3n2)cc1 [WYE354]
- IC50 (mTOR): 5 nM

Compound: CNC(=O)Nc1ccc(-c2nc(N3CC4CCC(C3)O4)c3cnn(C4CCC5(CC4)OCCO5)c3n2)cc1 [WYE-125132]
- IC50 (mTOR): 0.19 nM

Compound: Cc1c(C(=O)N2CCOc3ccc(-c4ccc(N)nc4)cc3C2)ccc(S(C)(=O)=O)c1F [XL388]
- IC50 [1]: > 3000 nM

Compound: CCCCCCCC[C@@]1(C)SC(=O)C=C1OC(=O)OCC [FAS 115]
- inhibition of GPAT (GPAT): inhibits GPAT
- production of virus (HCMV; highest concentration (10μ/ml), day 12 after infection): not observed
- viral titers reduced (HCMV; lowest FAS 115 concentration (2.5μ/ml), versus DMSO): about an order of magnitude
- expression of pp28 (human cytomegalovirus): noticeably reduced
- expression of pp65 (human cytomegalovirus): noticeably reduced
- concentration of infections virus (herpes simplex virus-1; higher concentrations (5μ/ml, 10μ/ml), after 5 days): ≤ 1 TCID50 unit/ml
- viral titers lower than in untreated cells (herpes simplex virus-1; lowest FAS 115 concentration (2.5μ/ml)): about an order of magnitude

Compound: c1cncc(CN2CCC(n3ncc4c(N5CCOCC5)nc(-c5ccc6[nH]ccc6c5)nc43)CC2)c1 [WAY-600]
- IC50 (mTOR): 9 nM
